Laboratory results reported in patent publication US8436049B2, “Uses of pentamidine and related compounds” (State of Oregon Acting By and Through the State Board of …, priority 2008, dated 2013).
“And” between values parts separate entries of the source, which are not always exact repeats. Equal values may be shown once. “Also recorded” adds a separate entry of the source.

Legend:
[1] = molecular target: T1, MBNL-cTNT interaction (Homo sapiens, UniProt Q9NR56); test: Gel shift assay, disruption of MBNL binding to cTNT pre-mRNA site; details: read-out: EC50 for disruption of MBNL binding to cTNT target construct
T1 construct: Both the full length MBNL and MBNL (1-260) constructs were cloned using BamHI and NotI restriction sites; GST (N, cleaved yes); made in house; host or cells: E. coli BL21-Star
T1 sequence (Q9NR56 1-382 isoform Q9NR56-5): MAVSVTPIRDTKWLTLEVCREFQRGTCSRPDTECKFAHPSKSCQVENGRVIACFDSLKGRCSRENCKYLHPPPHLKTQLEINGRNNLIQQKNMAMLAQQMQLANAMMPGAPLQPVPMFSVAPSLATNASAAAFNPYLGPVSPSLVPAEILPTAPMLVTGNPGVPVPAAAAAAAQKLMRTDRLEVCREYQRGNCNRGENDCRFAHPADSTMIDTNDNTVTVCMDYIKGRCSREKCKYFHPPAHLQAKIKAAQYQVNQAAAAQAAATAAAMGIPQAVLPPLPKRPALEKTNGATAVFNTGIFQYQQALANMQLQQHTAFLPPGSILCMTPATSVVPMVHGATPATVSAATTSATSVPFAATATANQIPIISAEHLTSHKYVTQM
Description: Solutions for the protein-RNA binding experiments contained 125 mM NaCl, 5 mM MgCl2, 20 mM Tris (pH 7.5), 7.5% glycerol, 2 mg/ml bovine serum albumin, and 0.1 mg/ml heparin. Prior to incubation, RNA substrates were annealed by incubation at 95° C. for 2 minutes and then placed directly on ice for 20 minutes in 66 mM NaCl, 6.7 mM MgCl2, and 27 mM Tris (pH 7.5). Protein was then added to the RNA in the presence or absence of the small molecule. The binding reaction was carried out in a 10 μL volume and was incubated for 10 minutes at room temperature before 2-4 μL were loaded on a pre-chilled 4° C. gel. […]
For binding curves, gels were quantified using ImageQuant® software (Molecular Dynamics, Piscataway, N.J.). The percent RNA bound was determined by taking the ratio of RNA-protein complex to total RNA, per lane. […] Binding curves were graphed using KaleidaGraph software (Synergy Software, Reading, Pa.). For the neomycin B and CUG8 gel shift, the apparent Kd was determined using Equation 1, where Y=fraction bound, m0=small molecule concentration, m1=total RNA concentration, and m2=Kd. […]
Pentamidine has been shown previously to bind to other RNAs and DNAs (Zhang et al., RNA 6:937-951, 2000); therefore, we determined pentamidine binding to an endogenous target of MBNL. […]

[2] = test system: IR splicing reporter in HeLa cells; test: IR splicing reporter (exon 11 inclusion) in HeLa cells with or without CUG960 plasmid; format: cell-based; details: for Rescue of IR reporter mis-splicing: cells expressing 960 CUG repeats
Description: (§1) HeLa cells were grown in monolayers in DMEM with GlutaMAX™ (Gibco, Carlsbad, Calif.) and supplemented with 10% fetal bovine serum. Approximately 2.0 (±0.2)×10^5 cells were plated in 6 well plates and transfected 18-20 hours later at 70-90% confluency. 1 μg of plasmid was transfected into each well of cells, using 5 μL of […] (Invitrogen) according to the manufacturer's protocols. For co-transfection, 1 μg of total plasmid was transfected, at 500 ng of each construct. Test compounds were added 4 hours after transfection, when the media was changed. Cells were harvested 18-22 hours after transfection using TrypLE™ reagent (Gibco).
Immediately following harvesting, RNA was isolated from the cell pellets using an RNeasy® kit (Qiagen, Valencia, Calif.). 500 ng of isolated RNA was DNased with RQI DNase (Promega, Madison, Wis.) according to manufacture's protocol. 100 ng of DNAsed RNA was reverse transcribed with Superscript® II (Invitrogen, Carlsbad, Calif.) and a cTNT-specific reverse primer according to manufacturer's protocols. 30 ng of the reverse transcription reaction was subjected to 22-25 rounds of PCR amplification using cTNT specific primers spiked with a forward primer 5′ end-labeled with [γ-^32P]ATP. Similar methods were used to reverse transcribe and amplify IR and PLEKHH2. […] The resulting PCR products were run on a 6% (19:1) polyacrylamide denaturing gel. The gel was subsequently autoradiographed and quantitation of the radioactive bands was performed using ImageQuant® software.
The following primer pairs were used. For the cTNT minigene, the forward primer was […] (SEQ ID NO: 1), and the reverse primer was […] (SEQ ID NO: 2). For the IR minigene, the forward primer was […] (SEQ ID NO: 3), and the reverse primer was […] (SEQ ID NO: 4). The underlined sections are for cloning purposes. For the PLEKHH2 minigene, the forward primer was […] (SEQ ID NO: 5), and the reverse primer was […] (SEQ ID NO: 6).
The ability of pentamidine to alter the splicing defects observed in a cell-based model for DM was tested. […]

[3] = test system: PLEKHH2 minigene in HeLa cells; test: PLEKHH2 minigene splicing in HeLa cells; format: cell-based; details: with or without CUG repeats
Description: as §1
Immediately following harvesting, RNA was isolated from the cell pellets using an RNeasy® kit (Qiagen, Valencia, Calif.). 500 ng of isolated RNA was DNased with RQI DNase (Promega, Madison, Wis.) according to manufacture's protocol. 100 ng of DNAsed RNA was reverse transcribed with Superscript® II (Invitrogen, Carlsbad, Calif.) and a cTNT-specific reverse primer according to manufacturer's protocols. 30 ng of the reverse transcription reaction was subjected to 22-25 rounds of PCR amplification using cTNT specific primers spiked with a forward primer 5′ end-labeled with [γ-^32P]ATP. […] The gel was subsequently autoradiographed and quantitation of the radioactive bands was performed using ImageQuant® software. […]

[4] = test system: Serca1 pre-mRNA splicing, HSA^LR transgenic mice; test: Serca1 exon 22 splicing in vastus muscle of HSA^LR mouse model of DM; format: in vivo; details: intraperitoneal, HSA^LR control 17±4%, normal 99.7±0.1%
Description: Mouse handling and experimental procedures were conducted in accordance with the Association for Assessment and Accreditation of Laboratory Animal Care. HSA^LR transgenic mice in line 20b expressing human skeletal actin mRNA with ˜250 CUG repeats in the 3′ UTR were used (Mankodi et al., Science 289:1769-1772, 2000). Age- and gender-matched HSA^LR mice were injected intraperitoneally with pentamidine or saline (control). For a low-dose regimen, 25 mg/kg of pentamidine was administrated twice daily for 5 days. For a higher-dose regimen, 40 mg/kg of pentamidine was injected once daily for 7 days. Mice were sacrificed one day after the last injection, and vastus muscle was obtained for splicing analysis. […] PCR amplification was carried out for 22-24 cycles with the following primer pairs: Clc-1 forward, [sequence] (SEQ ID NO: 7), and reverse, [sequence] (SEQ ID NO: 8); Serca1 forward, [sequence] (SEQ ID NO: 9), and reverse, [sequence] (SEQ ID NO: 10). The PCR products were analyzed on agarose gels and scanned with a laser fluorimager (Typhoon, GE Healthcare, Piscataway, N.J.). Differences between the two groups were evaluated by Student's t-test.

Structure (SMILES): N=C(N)c1ccc(OCCCCCOc2ccc(C(=N)N)cc2)cc1 [pentamidine]
- EC50 [1]: ~85 µM and 85 µM
- Rescue of IR reporter mis-splicing ([2]; 25 μM): partially rescued
- Rescue of IR reporter mis-splicing ([2]; 50 μM): fully rescued; also recorded: fully rescue the IR mis-splicing
- Effect on splicing of the IR reporter ([2]; cells lacking the CUG repeats): did not affect the splicing of the IR reporter
- Effect on PLEKHH2 minigene splicing [3]: Splicing was unchanged
- Serca1 exon 22 inclusion ([4]; 25 mg/kg twice daily for 5 days): 22±2%
- Serca1 exon 22 inclusion ([4]; 40 mg/kg once daily for 7 days): 40±4%
